Source: patent publication US6818146B2, “Chemical base for engine coolant/antifreeze with improved thermal stability properties” (Shell Oil Company, priority 2001, dated 2004)
Read-outs that look alike come from different tables or passages of the source.

Columns and labels:
Physical property data = assay type: physicochemical
[1] = Toxicity LD50 data and review of MSDS
ASTM D1177 freeze point = assay type: physicochemical
From the text: FIG. 1 illustrates the aqueous solution freeze point characteristics of the 1,3-propanediol and GM 6043 (EG). […] This could be an indication that actual protection against hard, damaging freezing is actually better, approaching the effective protection point of the EG-based product. […] We feel that the antifreeze properties of the chemistry are acceptable. Indeed a 50% solution would provide adequate protection against freezing in most geographies. TC in FIG. 1 is an internal designation for the PDO aqueous solutions at 50, 55, and 60 volume percent PDO.

[2] = Extended aging / oxidation comparison on D-4340 rig at 150° C.; assay type: physicochemical; conditions: 150° C. for 60 Days, two fully formulated coolant inhibition packages
[3] = 25° C.; cited from earlier work

| Compound | Specific Gravity, 20° C. (Physical property data) | Viscosity (Physical property data) [cP] | Toxicity [1] | State at the reported freeze point (ASTM D1177 freeze point) | Specific Gravity, 20° C. (Physical property data; 20° C.) | Viscosity (Physical property data; 20° C.) [cP] | Degradation in terms of pH value and formation of oxidation by-products [2] | Thermal Conductivity [3] [BTU/hr-ft-F] |
| --- | --- | --- | --- | --- | --- | --- | --- | --- |
| OCCO [EG, ethylene glycol] | 1.115 | 17 | – | – | – | – | – | – |
| OCCCO [PDO, 1,3-propanediol] | – | – | PDO offers low | soft and slushy | 1.0526 | 52 | PDO degraded less | – |
| CC(O)CO (stereo not shown) [PG, propylene glycol] | – | – | – | – | 1.032 | 49 | – | 0.119 |
